Measured values from patent US4263291A, “3,7-Disubstituted-3-cephem-4-carboxylic acid compounds and processes for the preparation thereof” (Fujisawa Pharmaceutical Co., Ltd., priority 1976, dated 1981).
≈ marks a conversion by molar mass, not a printed value. Where two headings read alike, the source gives them in different places.

Key:
Experiment in all cases: In vitro antibacterial activity, two-fold agar-plate dilution method
Type in all cases: cell-based
[1] = tested on: Sal. enteritidis; details: Salmonella enterica, HI-agar, 37° C., 20 hours, read-out: MIC (minimal inhibitory concentration)
Protocol: (§1) In vitro antibacterial activity was determined by the two-fold agar-plate dilution method as described below.
(§2) One loopful of an overnight culture of each test strain in Trypticase-soy broth (10^8 viable cells per ml.) was streaked on heart infusion agar (HI-agar) containing graded concentrations of antibiotics, and the minimal inhibitory concentration (MIC) was expressed in terms of μg/ml. aft er incubation at 37° C. for 20 hours.

[2] = tested on: Sh. flexneri 2a; details: Shigella flexneri, HI-agar, 37° C., 20 hours, read-out: MIC (minimal inhibitory concentration)
Protocol: as §1, §2

[3] = tested on: E. coli NIHJ JC-2; details: Escherichia coli, read-out: MIC (minimal inhibitory concentration)
Protocol: as §1, §2

[4] = tested on: Staph. aureus 209P JC-1; details: Staphylococcus aureus, read-out: MIC (minimal inhibitory concentration)
Protocol: as §1, §2

[5] = NIHJJC2, E. coli NIHJ JC-2, HI-agar, 37° C., 20 hours
[6] = Staph. aureus 209P JC-1, HI-agar, 37° C., 20 hours

SMILES	MIC [1] [µg/mL]	MIC [2] [µg/mL]	MIC [3, 5] [µg/mL]	MIC [4, 6] [µg/mL]	MIC ([4]; 209P, 20 h) [µg/mL]	MIC ([3]; NIHJJC2, 20 h) [µg/mL]
CO/N=C(\C(=O)NC1C(=O)N2C(C(=O)O)=C(CSc3nnnn3C)CSC12)c1csnn1 (stereo not drawn) [Test Compound (1), 7-[2-Methoxyimino-2-(1,2,3-thiadiazol-4-yl)acetamido]-3-(1-methyl-1H-tetrazol-5-yl)thiomethyl-3-cephem-4-carboxylic acid (syn isomer)]	0.2 (≈ 0.402 µM)	1.56 (≈ 3.14 µM)	0.78 (≈ 1.57 µM)	3.13 (≈ 6.29 µM)	–	–
CO/N=C(/C(=O)NC1C(=O)N2C(C(=O)O)=C(CSc3nnnn3C)CSC12)c1csnn1 (stereo not drawn) [Test Compound (2), 7-[2-Methoxyimino-2-(1,2,3-thiadiazol-4-yl)acetamido]-3-(1-methyl-1H-tetrazol-5-yl)thiomethyl-3-cephem-4-carboxylic acid (anti isomer)]	6.25 (≈ 12.6 µM)	12.5 (≈ 25.1 µM)	25 (≈ 50.2 µM)	–	12.5 (≈ 25.1 µM)	–
Cn1nnnc1SCC1=C(C(=O)O)N2C(=O)C(NC(=O)/C(=N\O)c3cnsn3)C2SC1 (stereo not drawn) [Test Compound (3), 7-[2-Hydroxyimino-2-(1,2,5-thiadiazol-3-yl)acetamido]-3-(1-methyl-1H-tetrazol-5-yl)thiomethyl-3-cephem-4-carboxylic acid (syn isomer)]	1.56 (≈ 3.23 µM)	0.39 (≈ 0.807 µM)	3.13 (≈ 6.47 µM)	0.78 (≈ 1.61 µM)	–	–
Cn1nnnc1SCC1=C(C(=O)O)N2C(=O)C(NC(=O)/C(=N\O)c3cnsc3)C2SC1 (stereo not drawn) [Test Compound (4), 7-[2-Hydroxyimino-2-(isothiazol-4-yl)acetamido]-3-(1-methyl-1H-tetrazol-5-yl)thiomethyl-3-cephem-4-carboxylic acid (syn isomer)]	0.78 (≈ 1.62 µM)	0.39 (≈ 0.808 µM)	–	0.39 (≈ 0.808 µM)	–	1.56 (≈ 3.23 µM)
